The results in this text go back to ChEMBL document CHEMBL4613288, “Combined Peptide and Small-Molecule Approach toward Nonacidic THIQ Inhibitors of the KEAP1/NRF2 Interaction” (ACS Med Chem Lett, 2020).

A word on the Papp A→B: it is the apparent permeability from the apical to the basolateral side of a cell layer.

This data set can be described thus: Apparent permeability across apical to basolateral side in MDCK-MDR1 cells measured over 60 mins. It is filed as ADME, cell-based, Canis lupus familiaris. Particulars: dog.

The structures appear in SMILES notation.

In the case of `O=C(O)[C@H]1CCCC[C@H]1C(=O)N1CCc2c(OCCO)cccc2[C@H]1CN1C(=O)c2ccccc2C1=O`, the apical-to-basolateral permeability (Papp A→B) at 1 h stood at 0.9 ×10⁻⁶ cm/s.
Regarding `O=C(OCc1ccccc1)[C@H]1CCCC[C@H]1C(=O)N1CCc2c(OS(=O)(=O)C(F)(F)F)cccc2C1CN1C(=O)c2ccccc2C1=O` (some centres not stated), the Papp A→B at 1 h worked out at 4.6 ×10⁻⁶ cm/s.
